Results taken from patent US10821079B2, “PKC activators and combinations thereof” (Cognitive Research Enterprises, Inc., priority 2011, dated 2020).

Tested on: primary human cortical neurons
Test: Long-term culture of human primary cortical neurons (40 days)
Assay type: cell-based
Method: More specifically, human primary cortical neurons were grown in Neuronal Medium (ScienCell Cat No #1521) containing neuronal growth supplement (NGS) (Sciencell Cat No #1562).
Cells were plated on poly-l-lysine (0.001%) coated plates at a density of >10000 cells/cm2. Half of the media was replaced by new media every 3 days. DCPLA-ME or Bryostatin was dissolved in 100% ethanol and added at final concentration (100 nM for DCPLA-ME, 0.27 nM for Bryostatin). Fresh DCPLA-ME (100 nM) or Bryostatin (0.27 nM) was added every 3 days during media change. The experiments were continued for 40 days.
Human primary neurons (ScienCell Research Laboratories, USA) were thawed and plated on poly-L-lysine coated plates at a density of 10,000 cells per cm^2 and were maintained in neuronal medium (DMEM+high glucose+neuronal growth supplement, ScienCell Research Laboratories, USA) following the recommended method. Primary human neurons were then treated with either DCPLA-ME (100 nM) or bryostatin 1 (0.27 nM) for 40 days. Fresh drug was added every third day with 50% media change.

CCCCCC1CC1CC1CC1CCCCCCCC(=O)OC (centres unmarked) [DCPLA-ME, methyl 8-(2-((2-pentylcyclopropyl)methyl)cyclopropyl)octanoate]
fractal dimension (neuritic branching) (100 nM): 1.40±0.03 | number of colocalized puncta of synaptophysin and PSD-95 (100 nM): 230 % of control | number of synapses (in words) (100 nM): significantly increased | neurite-positive cells/field (100 nM, 40 days): 360±45 cells/field | expression levels of PKCε, PSD-95 and synaptophysin (in words) (compared to control or bryostatin 1-treated cells, 40 days): significantly higher
